Assay results from ChEMBL document CHEMBL1137017, “In vitro antiviral activity and cross-resistance profile of PL-100, a novel protease inhibitor of human immunodeficiency virus type 1” (Antimicrob Agents Chemother, 2007).

Key:
[1] = system: Human immunodeficiency virus 1; assay: Antiviral activity against wild type HIV1 NL4-3 infected in MT4 cells after 6 days by MTT assay; format: functional, organism-based; settings: Human immunodeficiency virus 1, NL4-3, MT4, 144 h
[2] = Cytotoxicity against human MT4 cells after 6 days by MTT assay; format: cell-based
[3] = system: Human immunodeficiency virus 1; assay: Antiviral activity against wild type HIV1 NL4-3 in HEK293 cells after 48 hrs by replication-deffective luciferase reporter gene-based phenotypic assay; format: functional, organism-based; settings: Human immunodeficiency virus 1, NL4-3, HEK293, 48 h
Cathepsin D = Cathepsin D (Homo sapiens, UniProt P07339); assay: Inhibition of human cathepsin D
[4] = Inhibition of pig pepsin; set-up: species or system Sus scrofa
Protease = Protease (Human immunodeficiency virus 1, UniProt Q9YQ12); assay: Inhibition of HIV1 protease
Protease, sequence (Q9YQ12 whole entry): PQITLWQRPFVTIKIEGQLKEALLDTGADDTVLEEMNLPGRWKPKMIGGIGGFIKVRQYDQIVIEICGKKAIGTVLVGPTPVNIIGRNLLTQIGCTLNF

Cathepsin D, sequence (P07339 65-162 limits assumed): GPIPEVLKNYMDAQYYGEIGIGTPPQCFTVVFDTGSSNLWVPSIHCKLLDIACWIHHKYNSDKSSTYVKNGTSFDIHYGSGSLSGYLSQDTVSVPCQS
Cathepsin D, sequence (P07339 169-412 limits assumed): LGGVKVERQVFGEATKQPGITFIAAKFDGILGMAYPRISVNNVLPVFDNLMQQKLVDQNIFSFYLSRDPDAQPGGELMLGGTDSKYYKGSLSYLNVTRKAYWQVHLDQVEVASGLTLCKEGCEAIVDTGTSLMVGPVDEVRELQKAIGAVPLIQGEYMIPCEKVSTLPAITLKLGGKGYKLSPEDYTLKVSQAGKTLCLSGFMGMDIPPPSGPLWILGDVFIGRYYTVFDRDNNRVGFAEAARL

Compound: CC(C)(C)NC(=O)[C@@H]1C[C@@H]2CCCC[C@@H]2CN1C[C@@H](O)[C@H](Cc1ccccc1)NC(=O)[C@H](CC(N)=O)NC(=O)c1ccc2ccccc2n1
- EC50 [1]: 12 nM
- CC50 at 144 h [2]: 19000 nM
- EC50 [3]: 1.8 nM

Compound: CC(C)(C)NC(=O)[C@@H]1CN(Cc2cccnc2)CCN1C[C@@H](O)C[C@@H](Cc1ccccc1)C(=O)N[C@H]1c2ccccc2C[C@H]1O
- EC50 [1]: 67 nM
- CC50 at 144 h [2]: > 100000 nM
- EC50 [3]: 7.8 nM

Compound: CC(C)c1nc(CN(C)C(=O)N[C@H](C(=O)N[C@@H](Cc2ccccc2)C[C@H](O)[C@H](Cc2ccccc2)NC(=O)OCc2cncs2)C(C)C)cs1 [RITONAVIR]
- EC50 [1]: 61 nM

Compound: CC(C)CN(C[C@@H](O)[C@H](Cc1ccccc1)NC(=O)O[C@H]1CCOC1)S(=O)(=O)c1ccc(N)cc1
- EC50 [1]: 51 nM
- IC50 (Cathepsin D): 15200 nM
- CC50 at 144 h [2]: > 100000 nM
- EC50 [3]: 10.7 nM
- IC50 [4]: 280 nM
- Ki (Protease): 0.117 nM

Compound: Cc1cccc(C)c1OCC(=O)N[C@@H](Cc1ccccc1)[C@@H](O)C[C@H](Cc1ccccc1)NC(=O)[C@H](C(C)C)N1CCCNC1=O [LOPINAVIR]
- EC50 [1]: 19 nM
- CC50 at 144 h [2]: 28000 nM
- EC50 [3]: 2.8 nM
